{"source": "patent US9284272B2", "about": "“Inhibitors of histone methyltransferase G9a” (AbbVie Inc., priority 2014, dated 2016)", "key": {"[1]": {"system": "MV4;11 cells", "test": "Differentiation, proliferation, viability and cell cycle of MV4;11 cells, 14 days", "type": "cell-based, human", "text": "MV4;11 cells are a human acute myelocytic leukemia (AML) cell line derived from a human with leukemia."}, "[2]": {"system": "MV4;11 cells", "test": "Combination of G9a inhibitor and ATRA on MV4;11 proliferation (CellTiter Glo)", "type": "cell-based, human", "details": "0, 300 nM or 3 μM Example 7 with 0-100 nM ATRA, 5 days", "procedure": "Cellular proliferation was determined by CellTiter Glo assay."}, "[3]": {"system": "human peripheral blood mononucleated cells (PBMCs)", "test": "Viability of PBMCs (Caspase-Glo 3/7, CellTiter Glo)", "type": "cell-based", "details": "0-10 uM, 48 h", "procedure": "Following treatment, Caspase 3/7 activity (i.e., a marker of apoptosis) was assessed by the Caspase-Glo 3/7 assay system (FIG. 7A), and cell viability was assessed by CellTiter Glo assay (FIG. 7B)."}, "[4]": {"system": "H3K9me2", "test": "PK/PD study, reduction in H3K9me2 in MV4;11 xenograft", "type": "in vivo, SCID/bg mice", "details": "for reduction in H3K9me2: 30 mg/kg/day osmotic mini-pump, relative to vehicle", "text": "Specifically, subcutaneous MV4;11 xenografts were implanted in SCID/bg mice and allowed to grow to 200 mm^3. […] In particular, by day 14, dimethylation of lysine 9 of histone H3 in the tumor tissue was reduced by 46 percent as compared to the vehicle."}, "[5]": {"test": "Cytotoxicity, CellTiter Glo", "type": "cell-based", "details": "human, ZR7350 cells, 7-day proliferation, neural crest derived lines"}, "[6]": {"test": "Cytotoxicity, CellTiter Glo", "type": "cell-based", "details": "human, US2OS cells, 7-day proliferation, neural crest derived lines"}, "[7]": {"test": "in vitro", "type": "cell-based", "details": "PH-1; 7-day proliferation, neural crest derived lines; read-out: IC50 cytotoxicity"}, "[8]": {"test": "Cytotoxicity, CellTiter Glo", "type": "cell-based", "details": "human, TC-71 cells, 7-day proliferation, neural crest derived lines"}, "[9]": {"test": "Cytotoxicity, CellTiter Glo", "type": "cell-based", "details": "human, IMR-32 cells, 12-day proliferation, neural crest derived lines"}, "[10]": {"test": "Cytotoxicity, CellTiter Glo", "type": "cell-based", "details": "human, OPM2 cells, 5-day proliferation"}, "[11]": {"test": "Cytotoxicity, CellTiter Glo", "type": "cell-based", "details": "human, H929 cells, 5-day proliferation"}, "[12]": {"test": "Cytotoxicity, CellTiter Glo", "type": "cell-based", "details": "human, MV4;11 cells, 5-day proliferation"}, "[13]": {"test": "Cytotoxicity, CellTiter Glo", "type": "cell-based", "details": "human, Calu6 cells, 5-day proliferation"}, "[14]": {"test": "Cytotoxicity, CellTiter Glo", "type": "cell-based", "details": "human, DU145 cells, 5-day proliferation"}, "[15]": {"test": "Cytotoxicity, CellTiter Glo", "type": "cell-based", "details": "human, LN229 cells, 5-day proliferation"}, "[16]": {"test": "Cytotoxicity, CellTiter Glo", "type": "cell-based", "details": "human, LNCap cells, 5-day proliferation"}}, "data": [{"smiles": "COc1cc2c(cc1OCCCN1CCCC1)N=C(N)C21CCC1", "note": "[Example 7, 5′-methoxy-6′-(3-(pyrrolidin-1-yl)propoxy)spiro[cyclobutane-1,3′-indol]-2′-amine]", "values": [{"measurement": "MV4;11 cells no longer proliferating (CellTiter Glo)", "setting": "[1]; 3 μM", "value": "about 100%"}, {"measurement": "viability at 3 µM", "setting": "[1]; Homo sapiens, MV4-11, 336 h, 3 μM, read-out: viable MV4;11 cells (trypan blue exclusion)", "value": "~20", "unit": "%"}, {"measurement": "cell cycle analysis (PI staining)", "setting": "[1]; MV4;11 cells, 0-3 μM", "value": "more cells were observed to be in the subG1/G0 phase"}, {"measurement": "expression of marker CD11b by flow cytometry (differentiation)", "setting": "[1]; MV4;11 cells, 0-3 μM", "value": "more cells in the population expressed the marker CD11b"}, {"measurement": "cells positive for CD11b", "setting": "[1]; MV4;11 cells, 3 μM", "value": "about 90%"}, {"measurement": "MV4;11 proliferation, combination with ATRA", "setting": "[2]", "value": "additive effects on MV4;11 proliferation"}, {"measurement": "effect on PBMC viability (Caspase 3/7 activity and CellTiter Glo)", "setting": "[3]", "value": "no effect on cell viability"}, {"measurement": "reduction in H3K9me2", "setting": "[4]; Day 2", "value": 0, "unit": "%"}, {"measurement": "reduction in H3K9me2", "setting": "[4]; Day 7", "value": 25, "unit": "%"}, {"measurement": "reduction in H3K9me2", "setting": "[4]; Day 14", "value": 46, "unit": "%"}, {"measurement": "reduction of dimethylation of lysine 9 of histone H3 in the tumor tissue", "setting": "[4]; day 14, compared to vehicle", "value": 46, "unit": "%"}, {"measurement": "IC50 at 7 day", "setting": "[5]", "value": "> 10", "unit": "µM"}, {"measurement": "IC50 at 7 day", "setting": "[6]", "value": "> 10", "unit": "µM"}, {"measurement": "IC50 at 7 day", "setting": "[7]", "value": "> 10", "unit": "µM"}, {"measurement": "IC50 at 7 day", "setting": "[8]", "value": "> 10", "unit": "µM"}, {"measurement": "IC50 at 12 day", "setting": "[9]", "value": "> 10", "unit": "µM"}, {"measurement": "IC50 at 5 day", "setting": "[10]", "value": "> 10", "unit": "µM"}, {"measurement": "IC50 at 5 day", "setting": "[11]", "value": "> 10", "unit": "µM"}, {"measurement": "IC50 at 5 day", "setting": "[12]", "value": "> 10", "unit": "µM"}, {"measurement": "IC50 at 5 day", "setting": "[13]", "value": "> 10", "unit": "µM"}, {"measurement": "IC50 at 5 day", "setting": "[14]", "value": "> 10", "unit": "µM"}, {"measurement": "IC50 at 5 day", "setting": "[15]", "value": "> 10", "unit": "µM"}, {"measurement": "IC50 at 5 day", "setting": "[16]", "value": "> 10", "unit": "µM"}]}]}
